Results: ChEMBL document CHEMBL1777727, “The role of the 4''-hydroxyl on motilin agonist potency in the 9-dihydroerythromycin series” (Bioorg Med Chem Lett, 2011)
Converted amounts (≈) assume the structure as drawn.

What was measured:
hERG (KCNH2) [1] = molecular target: T1, hERG (KCNH2) (Homo sapiens, UniProt Q12809); test: Inhibition of human ERG at 30 uM
hERG (KCNH2) [2] = molecular target: T1, hERG (KCNH2); test: Inhibition of human ERG at 300 uM
Streptococcus pneumoniae = test: Antimicrobial activity against erythromycin-sensitive Streptococcus pneumoniae ATCC 6301; format: functional
Motilin receptor = Motilin receptor (Oryctolagus cuniculus, UniProt A5A4K8); test: Agonist activity at motilin receptor in rabbit smooth muscle assessed as maximal possible tissue contraction; format: functional
[3] = molecular target: Motilin receptor (Oryctolagus cuniculus) (UniProt A5A4K8); test: Agonist activity at motilin receptor in rabbit smooth muscle assessed as tachyphylaxis at EC90 concentration after 4th dose; format: functional
[4] = molecular target: Voltage-gated inwardly rectifying potassium channel KCNH2 (Homo sapiens, UniProt Q12809); test: Inhibition of human ERG
Chain of Voltage-gated inwardly rectifying potassium channel KCNH2 (Q12809 whole entry): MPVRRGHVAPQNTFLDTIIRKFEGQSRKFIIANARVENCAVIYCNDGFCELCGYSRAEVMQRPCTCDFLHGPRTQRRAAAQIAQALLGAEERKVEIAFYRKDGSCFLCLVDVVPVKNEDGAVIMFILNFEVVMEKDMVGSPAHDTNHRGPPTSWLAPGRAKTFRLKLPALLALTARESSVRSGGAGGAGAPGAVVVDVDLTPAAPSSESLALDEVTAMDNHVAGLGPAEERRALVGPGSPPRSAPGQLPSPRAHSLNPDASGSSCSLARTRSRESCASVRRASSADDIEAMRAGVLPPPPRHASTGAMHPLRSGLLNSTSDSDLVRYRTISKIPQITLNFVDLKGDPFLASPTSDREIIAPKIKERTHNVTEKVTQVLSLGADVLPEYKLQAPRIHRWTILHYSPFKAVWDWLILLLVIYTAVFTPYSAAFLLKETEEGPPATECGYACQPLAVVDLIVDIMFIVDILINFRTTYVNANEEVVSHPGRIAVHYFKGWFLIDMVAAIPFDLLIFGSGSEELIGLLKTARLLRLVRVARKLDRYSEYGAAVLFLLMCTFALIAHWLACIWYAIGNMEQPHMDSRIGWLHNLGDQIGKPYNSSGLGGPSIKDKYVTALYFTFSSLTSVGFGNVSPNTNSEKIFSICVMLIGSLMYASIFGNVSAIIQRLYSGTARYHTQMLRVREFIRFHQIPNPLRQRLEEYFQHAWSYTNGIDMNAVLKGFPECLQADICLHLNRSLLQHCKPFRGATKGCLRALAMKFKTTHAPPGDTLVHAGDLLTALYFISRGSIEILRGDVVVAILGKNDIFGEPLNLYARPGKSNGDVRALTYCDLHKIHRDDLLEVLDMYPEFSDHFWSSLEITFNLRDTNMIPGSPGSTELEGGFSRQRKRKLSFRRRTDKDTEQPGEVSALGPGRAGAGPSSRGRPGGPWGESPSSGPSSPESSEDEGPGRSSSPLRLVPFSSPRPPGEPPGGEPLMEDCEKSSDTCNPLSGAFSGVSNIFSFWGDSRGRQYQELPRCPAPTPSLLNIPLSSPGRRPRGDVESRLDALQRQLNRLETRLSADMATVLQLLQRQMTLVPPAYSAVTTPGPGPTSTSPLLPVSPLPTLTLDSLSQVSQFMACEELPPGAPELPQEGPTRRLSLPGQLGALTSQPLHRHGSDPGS

Chain of Motilin receptor (Oryctolagus cuniculus) (A5A4K8 as listed by the source): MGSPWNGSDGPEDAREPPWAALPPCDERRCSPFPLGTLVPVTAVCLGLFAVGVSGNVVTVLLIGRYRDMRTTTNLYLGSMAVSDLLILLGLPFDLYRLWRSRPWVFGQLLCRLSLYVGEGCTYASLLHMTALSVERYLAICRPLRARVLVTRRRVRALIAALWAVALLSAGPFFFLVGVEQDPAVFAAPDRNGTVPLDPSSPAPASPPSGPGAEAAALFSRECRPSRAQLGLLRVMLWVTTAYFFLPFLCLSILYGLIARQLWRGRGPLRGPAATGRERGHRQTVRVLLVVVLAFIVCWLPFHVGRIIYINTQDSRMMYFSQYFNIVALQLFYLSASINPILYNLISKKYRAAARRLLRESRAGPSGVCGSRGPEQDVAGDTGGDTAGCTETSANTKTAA
Chain of Motilin receptor (A5A4K8 whole entry): as the sequence (A5A4K8 as listed by the source) above
T1 sequence (Q12809 whole entry): as the sequence (Q12809 whole entry) above

SMILES: CC[C@H]1OC(=O)[C@H](C)[C@@H](O[C@H]2C[C@@](C)(OC)C[C@H](C)O2)[C@H](C)[C@@H](O[C@@H]2O[C@H](C)C[C@H](N(C)C(C)C)[C@H]2O)[C@](C)(O)C[C@@H](C)[C@H](OCC(N)=O)[C@H](C)[C@@H](O)[C@]1(C)O
- inhibition at 30 µM (hERG (KCNH2) [1]): 28%
- inhibition at 300 µM (hERG (KCNH2) [2]): 86%
- MIC (Streptococcus pneumoniae): > 128 µg/mL
- EC50 (Motilin receptor): 36 nM

SMILES: CC[C@H]1OC(=O)[C@H](C)[C@@H](O[C@H]2C[C@@](C)(OC)C[C@H](C)O2)[C@H](C)[C@@H](O[C@@H]2O[C@H](C)C[C@H](N(C)C3CCC3)[C@H]2O)[C@](C)(O)C[C@@H](C)[C@H](O)[C@H](C)[C@@H](O)[C@]1(C)O
- inhibition at 30 µM (hERG (KCNH2) [1]): 92%
- inhibition at 300 µM (hERG (KCNH2) [2]): 100%
- MIC (Streptococcus pneumoniae): > 128 µg/mL
- EC50 (Motilin receptor): 120 nM

SMILES: CC[C@H]1OC(=O)[C@H](C)[C@@H](O[C@H]2C[C@@](C)(OC)[C@@H](O)[C@H](C)O2)[C@H](C)[C@@H](O[C@@H]2O[C@H](C)C[C@H](N(C)C3CCC3)[C@H]2O)[C@](C)(O)C[C@@H](C)[C@H](O)[C@H](C)[C@@H](O)[C@]1(C)O
- EC50 (Motilin receptor): 350 nM

SMILES: CC[C@H]1OC(=O)[C@H](C)[C@@H](O[C@H]2C[C@@](C)(OC)[C@@H](O)[C@H](C)O2)[C@H](C)[C@@H](O[C@@H]2O[C@H](C)C[C@H](N(C)C(C)C)[C@H]2O)[C@]2(C)CC(C)=C(O2)[C@H](C)C(=O)[C@]1(C)OC
- Activity [3]: 22%

SMILES: CC[C@H]1OC(=O)[C@H](C)[C@@H](O[C@H]2C[C@@](C)(OC)[C@@H](O)[C@H](C)O2)[C@H](C)[C@@H](O[C@@H]2O[C@H](C)C[C@H](N(C)C[C@H](C)O)[C@H]2O)[C@](C)(O)C[C@@H](C)[C@H](O)[C@H](C)[C@@H](O)[C@]1(C)O
- EC50 (Motilin receptor): 360 nM

SMILES: CC[C@H]1OC(=O)[C@H](C)[C@@H](O[C@H]2C[C@@](C)(OC)C[C@H](C)O2)[C@H](C)[C@@H](O[C@@H]2O[C@H](C)C[C@H](N(C)CCO)[C@H]2O)[C@](C)(O)C[C@@H](C)[C@H](O)[C@H](C)[C@@H](O)[C@]1(C)O
- inhibition at 30 µM (hERG (KCNH2) [1]): 68%
- MIC (Streptococcus pneumoniae): 2 µg/mL (≈ 2.67 µM)
- EC50 (Motilin receptor): 63 nM
- Activity [3]: 94%

SMILES: CC[C@H]1OC(=O)[C@H](C)[C@@H](O[C@H]2C[C@@](C)(OC)C[C@H](C)O2)[C@H](C)[C@@H](O[C@@H]2O[C@H](C)C[C@H](N(C)CC(=O)NC)[C@H]2O)[C@](C)(O)C[C@@H](C)[C@H](O)[C@H](C)[C@@H](O)[C@]1(C)O
- EC50 (Motilin receptor): > 5000 nM

SMILES: CC[C@H]1OC(=O)[C@H](C)[C@@H](O[C@H]2C[C@@](C)(OC)C[C@H](C)O2)[C@H](C)[C@@H](O[C@@H]2O[C@H](C)C[C@H](N(C)C(C)C)[C@H]2O)[C@](C)(O)C[C@@H](C)[C@H](OCC(=O)NC)[C@H](C)[C@@H](O)[C@]1(C)O
- inhibition at 30 µM (hERG (KCNH2) [1]): 57%
- inhibition at 300 µM (hERG (KCNH2) [2]): 97%
- IC50 [4]: 30000 nM
- MIC (Streptococcus pneumoniae): 128 µg/mL (≈ 156 µM)
- EC50 (Motilin receptor): 17 nM

SMILES: CC[C@H]1OC(=O)[C@H](C)[C@@H](O[C@H]2C[C@@](C)(OC)[C@@H](O)[C@H](C)O2)[C@H](C)[C@@H](O[C@@H]2O[C@H](C)C[C@H](N(C)CC(C)(C)O)[C@H]2O)[C@](C)(O)C[C@@H](C)[C@H](O)[C@H](C)[C@@H](O)[C@]1(C)O
- EC50 (Motilin receptor): 100 nM

SMILES: CC[C@H]1OC(=O)[C@H](C)[C@@H](O[C@H]2C[C@@](C)(OC)[C@@H](O)[C@H](C)O2)[C@H](C)[C@@H](O[C@@H]2O[C@H](C)C[C@H](N(C)C(C)C)[C@H]2O)[C@](C)(O)C[C@@H](C)[C@H](OCC(=O)N(C)C)[C@H](C)[C@@H](O)[C@]1(C)O
- inhibition at 300 µM (hERG (KCNH2) [2]): 51%

SMILES: CC[C@H]1OC(=O)[C@H](C)[C@@H](O[C@H]2C[C@@](C)(OC)C[C@H](C)O2)[C@H](C)[C@@H](O[C@@H]2O[C@H](C)C[C@H](N(C)C[C@H](C)O)[C@H]2O)[C@](C)(O)C[C@@H](C)[C@H](O)[C@H](C)[C@@H](O)[C@]1(C)O
- inhibition at 30 µM (hERG (KCNH2) [1]): 89%
- inhibition at 300 µM (hERG (KCNH2) [2]): 100%
- MIC (Streptococcus pneumoniae): 128 µg/mL (≈ 168 µM)
- EC50 (Motilin receptor): 140 nM

SMILES: CC[C@H]1OC(=O)[C@H](C)[C@@H](O[C@H]2C[C@@](C)(OC)[C@@H](O)[C@H](C)O2)[C@H](C)[C@@H](O[C@@H]2O[C@H](C)C[C@H](N(C)CCO)[C@H]2O)[C@](C)(O)C[C@@H](C)[C@H](O)[C@H](C)[C@@H](O)[C@]1(C)O
- EC50 (Motilin receptor): 210 nM

SMILES: CC[C@H]1OC(=O)[C@H](C)[C@@H](O[C@H]2C[C@@](C)(OC)[C@@H](O)[C@H](C)O2)[C@H](C)[C@@H](O[C@@H]2O[C@H](C)C[C@H](N(C)C(C)C)[C@H]2O)[C@](C)(O)C[C@@H](C)[C@H](OCC(N)=O)[C@H](C)[C@@H](O)[C@]1(C)O
- inhibition at 300 µM (hERG (KCNH2) [2]): 29%

SMILES: CC[C@H]1OC(=O)[C@H](C)[C@@H](O[C@H]2C[C@@](C)(OC)CC(C)O2)[C@H](C)[C@@H](O[C@@H]2O[C@H](C)C[C@H](N(C)CC)[C@H]2O)C2(C)CC(C)=C(O2)[C@H](C)[C@@H](O)[C@H]1C (single isomer, unassigned)
- Activity [3]: 9%

SMILES: CC[C@H]1OC(=O)[C@H](C)[C@@H](O[C@H]2C[C@@](C)(OC)C[C@H](C)O2)[C@H](C)[C@@H](O[C@@H]2O[C@H](C)C[C@H](N(C)C(C)C)[C@H]2O)[C@](C)(O)C[C@@H](C)[C@H](O)[C@H](C)[C@@H](O)[C@]1(C)O
- inhibition at 30 µM (hERG (KCNH2) [1]): 74%
- MIC (Streptococcus pneumoniae): 64 µg/mL (≈ 85.6 µM)
- EC50 (Motilin receptor): 59 nM
- Activity [3]: 88%

SMILES: CC[C@H]1OC(=O)[C@H](C)[C@@H](O[C@H]2C[C@@](C)(OC)C[C@H](C)O2)[C@H](C)[C@@H](O[C@@H]2O[C@H](C)C[C@H](N(C)CC(C)(C)O)[C@H]2O)[C@](C)(O)C[C@@H](C)[C@H](O)[C@H](C)[C@@H](O)[C@]1(C)O
- inhibition at 30 µM (hERG (KCNH2) [1]): 86%
- inhibition at 300 µM (hERG (KCNH2) [2]): 100%
- MIC (Streptococcus pneumoniae): 128 µg/mL (≈ 165 µM)
- EC50 (Motilin receptor): 24 nM

SMILES: CC[C@H]1OC(=O)[C@H](C)[C@@H](O[C@H]2C[C@@](C)(OC)C[C@H](C)O2)[C@H](C)[C@@H](O[C@@H]2O[C@H](C)C[C@H](N(C)C(C)C)[C@H]2O)[C@](C)(O)C[C@@H](C)[C@H](OCC(=O)N(C)C)[C@H](C)[C@@H](O)[C@]1(C)O
- inhibition at 30 µM (hERG (KCNH2) [1]): 50%
- inhibition at 300 µM (hERG (KCNH2) [2]): 100%
- MIC (Streptococcus pneumoniae): 128 µg/mL (≈ 154 µM)
- EC50 (Motilin receptor): 190 nM
